Assay results from PMC12606608, “Identification of Novel Selective Transient Receptor Potential Vanilloid 4 (TRPV4) Agonists” (Current Pharmaceutical Design, 2025).
“Also recorded” adds a separate entry of the source. Where two headings read alike, the source gives them in different places.

How the values were obtained:
mouse TRPV4 = target: T1, mouse TRPV4 (Mus musculus, UniProt Q9EPK8); assay: Live-cell Fura-2 Ca2+ imaging in HEK293T cells transiently transfected with mouse TRPV4 (TRPV4-HEK293 cells); format: cell-based; settings: for Ca2+ influx in the presence of GSK219: agonist 30 nM, pre- and co-applied 100 nM GSK219; for Hill coefficient: concentration-response curve; for Ca2+ influx (F340/F380): 30 nM, 2 min
T1 construct: expressed in transfected cells; host or cells: HEK293 (ATCC CRL-1573; elsewhere called HEK293T), transient, Lipofectamine 2000
Method: HEK293 cells were purchased from ATCC (ATCC CRL-1573; Manassas, VA, USA). As previously reported, the cells were tested for mycoplasma contamination before being cultured in the laboratory and grown as a monolayer in Dulbecco’s modified Eagle’s medium (DMEM) (Life Technologies, Carlsbad, CA, USA), supplemented with 10% fetal bovine serum (FBS; Life Technologies), 100 units/mL penicillin, and 100 μg/mL streptomycin. The cells were maintained in a humidified incubator at 37°C under 5% CO2. The cDNAs for mouse TRPV4 (mTRPV4) were transiently transfected into HEK293 cells for at least 24 hours using Lipofectamine 2000 (Invitrogen, Waltham, MA, USA).
(§1) Fura-2-based ratiometric measurements of intracellular calcium concentration ([Ca^2+]i) were performed as previously described. HEK293T cells transiently transfected with mTRPV4, primary keratinocytes, and macrophages were loaded with 4 μM Fura-2 AM (Life Technologies) in culture medium at 37°C for 60 minutes. The cells were then washed three times and incubated in Hanks’ balanced salt solution (HBSS) at room temperature for 30 minutes before use. Fluorescence intensities were measured at excitation wavelengths of 340 nm and 380 nm using an inverted Leica fluorescence microscope equipped with excitation filter wheels (340 nm, 360 nm, and 380 nm). The data were captured using LAS X imaging software (Leica Microsystems, Wetzlar, Germany). The Fura-2 ratios (F340/F380) were used to indicate changes in intracellular calcium ion concentrations ([Ca^2+]i) in response to stimulation. These values were derived from time-lapse imaging of each coverslip. The baseline of the cells was measured in the resting state, and once the value stabilized, the cells were treated with drugs. If no significant difference in the cell baseline was observed, cell viability was considered consistent. The activation threshold was defined as three standard deviations (SDs) above the mean, which corresponds to approximately 20% above the baseline.
GSK101 and the compounds were dissolved to create a concentration gradient (0.3 nM, 3 nM, 30 nM, 100 nM, 0.3 μM, 3 μM, 30 μM, 300 μM). Live-cell calcium imaging experiments were performed using fura-2-labeled TRPV4-HEK293 cells, and the fluorescence curves were recorded for each concentration of the compounds. The experiments were repeated three times, with the number of live cells in each field of view exceeding 100. The real-time fluorescence intensity curves from each experiment were statistically analyzed to calculate the cell response rate (the percentage of cells showing a fluorescence increase greater than 20% above baseline relative to the total number of cells). The concentration-response curves were fitted using GraphPad Prism (with the logarithm of concentration on the X-axis and the response rate on the Y-axis), and the Hill coefficient and EC50 values for each compound were automatically output.
To evaluate the efficacy of these synthetic analogues in vitro, we assessed their ability to activate TRPV4 using a Ca^2+ imaging assay. Because of the low expression of TRPV4 in native cells, we utilized a heterologous expression system and conducted Ca^2+ imaging in HEK293T cells that were transiently transfected with mouse TRPV4 (TRPV4-HEK293 cells).

[1] = target: T2, TRPV4 in primary keratinocytes (Mus musculus, UniProt Q9EPK8); assay: Live-cell Ca2+ imaging in primary keratinocytes of neonatal TRPV4+/+ mice; format: cell-based; settings: for [Ca2+]i response: 0.3 μM
T2 construct: endogenous in cells; host or cells: primary keratinocytes of neonatal (P0-P2) mice
Method: Mice (P0-P2) were sacrificed and soaked in 10% povidone-iodine for 5 min. After being rinsed with 70% ethanol multiple times, the skin was removed and placed in a Petri dish containing PBS solution with 0.25% dispase II and incubated at 4°C overnight. The epidermis was then separated from the subcutaneous tissues, and keratinocytes were separated from the epidermis using a cell scraper and collected in 2 mL mouse keratinocyte media (Life Technologies). Dissociated cells were transferred to a 15% BSA column (1 mL) and centrifuged for 5 min at 1000 rpm. The cells were resuspended and seeded in […] Petri dishes containing 8-9 culture slides and placed in the culture incubator.
as §1, with “baseline. […]” for “baseline.”

[2] = target: T3, TRPV4 in peritoneal macrophages (Mus musculus, UniProt Q9EPK8); assay: Live-cell Ca2+ imaging in freshly dissociated peritoneal macrophages from TRPV4+/+ mice; format: cell-based; settings: for [Ca2+]i response: 0.3 μM
T3 construct: endogenous in cells; host or cells: freshly dissociated murine peritoneal macrophages
Method: Peritoneal macrophages were isolated as previously described. The mice were euthanized by cervical dislocation, and their abdomens were dissected in the middle. Six milliliters of cold phosphate-buffered saline (PBS) was instilled into the peritoneal cavity, followed by gentle massage and subsequent aspiration. The samples were centrifuged for 5 min at 4°C and 300 g, resuspended in 2 mL PBS, and filtered using […] cell strainers. After another centrifugation, the cell suspensions were seeded in […] Petri dishes containing 8-9 culture slides and placed in a culture incubator (37°C, 5% CO2).
as §1, with “baseline. […]” for “baseline.”

C57BL/6J mice [3] = assay: Mechanical pain test (von Frey, intraplantar injection); format: in vivo, mouse
Method: (§2) Eighty adult male wild-type C57BL/6J mice and thirty TRPV4 knockout C57BL/6J mice (weighing 23-25g) were purchased from Gem Pharmatech (Nanjing, China) and maintained under a 12-hour light-dark cycle at 24°C. For all experiments, mice aged 8 to 12 weeks were utilized and acclimatized to the experimental room one week before the experiments. The mice were assigned to the experimental and control groups (5 mice/group) using a computer-generated table of random numbers (0-10), as well as the sequence of dosing and measurement. All behavioral tests were recorded from a side view, and the evaluations were carried out by observers who were unaware of the animals' treatment and genotype.
The mice were allowed to acclimate for 1.5 hours in red plastic enclosures on a metal mesh platform. The test compounds (30 μM) were formulated in 0.9% saline solution and administered via intraplantar injection with a volume of 10 μL. Calibrated von Frey filaments (0.02, 0.04, 0.07, 0.16, 0.4, 0.6, 1.0, 1.4, and 2.0 g) were applied perpendicularly to the plantar surfaces of the mice's hind paws for up to 2 seconds, with sufficient force to cause the filament to bend. Brisk withdrawal or flinching of the hind paw during or immediately after application was considered a positive response. […] The threshold force required to elicit paw withdrawal (50% mechanical threshold) was obtained using the up-down method.

C57BL/6J mice [4] = assay: Acute itch test (intradermal injection into the nape, scratches in 30 min); format: in vivo, mouse; settings: 50 µL intradermal, wild-type mice
Method: as §2
Under 1 to 2% isoflurane anesthesia, the mice were shaved on the nape of the neck 5 to 7 days prior to the experiment. For all itch behavior experiments, the mice were acclimated in red plastic chambers for two days before measurements, with acclimation sessions lasting 2 hours on the first day and 1.5 hours on the day of measurement. GSK101 (30 μM) and the test compounds (30 μM and 300 μM) were formulated in 0.9% saline and administered via intradermal injection to the nape of the neck at a volume of 50 μL. […] Acute chemical itch was evaluated by counting the number of scratches within the 30-minute recording period.

[5] = dose-response of cell response rate, TRPV4-HEK293 cells, read-out: EC50
[6] = GSK219 1 μM pre- and co-applied

T2 sequence (Q9EPK8 whole entry): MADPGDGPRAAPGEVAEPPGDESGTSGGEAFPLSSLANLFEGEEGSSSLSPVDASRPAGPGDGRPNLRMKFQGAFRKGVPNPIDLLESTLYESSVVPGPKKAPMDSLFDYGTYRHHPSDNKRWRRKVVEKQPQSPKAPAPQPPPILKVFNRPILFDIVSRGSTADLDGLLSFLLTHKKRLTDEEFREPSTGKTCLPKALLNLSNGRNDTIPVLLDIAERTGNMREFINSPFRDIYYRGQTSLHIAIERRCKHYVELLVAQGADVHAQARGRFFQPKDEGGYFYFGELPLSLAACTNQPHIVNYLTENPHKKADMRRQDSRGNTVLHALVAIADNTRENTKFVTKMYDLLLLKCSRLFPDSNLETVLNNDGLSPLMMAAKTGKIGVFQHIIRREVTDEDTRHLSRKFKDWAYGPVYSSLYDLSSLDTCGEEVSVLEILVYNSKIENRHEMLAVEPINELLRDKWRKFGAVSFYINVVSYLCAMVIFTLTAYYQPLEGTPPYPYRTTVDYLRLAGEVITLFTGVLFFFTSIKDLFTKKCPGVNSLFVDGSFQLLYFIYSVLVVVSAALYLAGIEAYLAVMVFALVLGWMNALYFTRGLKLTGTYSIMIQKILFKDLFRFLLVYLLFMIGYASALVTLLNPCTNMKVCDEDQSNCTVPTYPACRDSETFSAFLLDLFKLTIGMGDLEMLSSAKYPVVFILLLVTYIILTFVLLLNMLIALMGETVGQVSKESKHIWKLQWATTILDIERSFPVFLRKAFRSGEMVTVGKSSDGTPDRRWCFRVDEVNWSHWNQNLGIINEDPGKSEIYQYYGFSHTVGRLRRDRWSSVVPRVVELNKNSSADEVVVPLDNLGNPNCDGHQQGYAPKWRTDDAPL
T1 sequence (Q9EPK8 whole entry): as above
T3 sequence (Q9EPK8 whole entry): as above

Row | Structure (SMILES) | Ca2+ influx in the presence of GSK219 (mouse TRPV4) | Hill coefficient (mouse TRPV4; TRPV4-HEK293 cells) | EC50 (mouse TRPV4; [5]) [µM] | Ca2+ influx (F340/F380) (mouse TRPV4; TRPV4-HEK293 cells) | further results
1 | CC(C)C[C@H](NC(=O)c1cc2ccccc2s1)C(=O)N1CC2CCC(C1)N2C(=O)C(CO)NS(=O)(=O)c1ccc(Cl)cc1Cl (stereo partly drawn) [GM1004] | abolished | 1.1650 | 11.5 |  | 
2 | CC(C)CC(NC(=O)c1cc2ccccc2s1)C(=O)N1CC2COCC(C1)N2C(=O)C(CO)NS(=O)(=O)c1ccc(Cl)cc1Cl (stereo not drawn) [GM1009] | abolished | 0.2998 | 85.6 |  | 
3 | CC(C)C[C@H](NC(=O)c1cc2ccccc2s1)C(=O)N1CCN(C(=O)[C@H](CO)NS(=O)(=O)c2ccc(Cl)cc2Cl)CC1 [GSK101, N-((1S)-1-{[4-((2S)-2-{[(2,4-dichlorophenyl)sulfonyl]amino}-3-hydroxypropanoyl)-1-piperazinyl]carbonyl}-3-methylbutyl)-1-benzothiophene-2-carboxamide, reference compound] | abolished | 0.9273 |  | produced a Ca^2+ influx of different strengths | EC50 (mouse TRPV4): 0.0137 µM; [Ca2+]i response [1]: induced a significant TRPV4-mediated calcium response; [Ca2+]i response [2]: induced a significant TRPV4-mediated calcium response; Mechanical hyperalgesia (paw withdrawal) vs control group (C57BL/6J mice [3]; 30 µM, 10 µL intraplantar, wild-type mice): significantly induced mechanical hyperalgesia; Number of scratching bouts within 30 minutes (average) (C57BL/6J mice [4]; 30 μM): 50; Number of scratches within 30 minutes (average) (C57BL/6J mice [4]; 300 µM): 88
4 | O=C(NC1(c2ccccc2)CC1)c1c(CN2CCC(N3CCCCC3)CC2)c(-c2cccc(C(F)(F)F)c2)nc2cc(Br)ccc12 [GSK219, reference compound] |  |  |  |  | Inhibition of agonist-induced Ca2+ influx (mouse TRPV4; 100 nM GSK219 pre- and co-applied, TRPV4-HEK293 cells): abolished the action of GSK101 and compounds; Inhibition of agonist-elicited [Ca2+]i response [1, 6]: abolished the GSK101 action; Inhibition of agonist-elicited [Ca2+]i response [2, 6]: abolished the GSK101 action; Block of compound-induced pain-like behavior (C57BL/6J mice [3]; GSK219 intraperitoneally 30 minutes before plantar injection of compounds (30 µM)): blocked the pain-like behavior induced by GSK101 derivatives
5 | CC(C)CC(NC(=O)c1cc2ccccc2s1)C(=O)N1CC2(C1)CN(C(=O)C(CO)NS(=O)(=O)c1ccc(Cl)cc1)C2 (stereo not drawn) [LM6140] |  |  |  | no measurable current | 
6 | CC(C)CC(NC(=O)c1cc2ccccc2s1)C(=O)N1CC2(C1)CN(C(=O)C(CO)NS(=O)(=O)c1cccc(Cl)c1)C2 (stereo not drawn) [LM6142] |  |  |  | no measurable current | 
7 | CC(C)CC(NC(=O)c1cc2ccccc2s1)C(=O)N1CC2(C1)CN(C(=O)C(CO)NS(=O)(=O)c1ccccc1Cl)C2 (stereo not drawn) [LM6146] | abolished | 0.3283 | 78.9 |  | Immediate pain-inducing effect compared with GSK101 (C57BL/6J mice [3]; 30 µM intraplantar, 0 h, wild-type mice): slightly weaker than that of GSK101; Pain-inducing effect one hour post-injection compared with GSK101 (C57BL/6J mice [3]; 30 µM intraplantar, 1 h, wild-type mice): reached a level comparable to GSK101
8 | C[C@H](CCC(=O)O)C[C@H](C)C[C@H](C)C(=O)/C=C(\O)[C@H](C)C[C@H](C)C/C=C/[C@@H](C)[C@@H](O)[C@@H](C)[C@@H](O)C[C@@H]1CC[C@@](C)([C@H]2CC[C@@](C)([C@@H](C)O)O2)O1 [ionomycin, reference compound] |  |  |  |  | Intracellular calcium concentration (positive control) (mouse TRPV4; 1 μM ionomycin, TRPV4-HEK293 cells): rapidly and significantly increased intracellular calcium concentration

Now from value to compound, other results behind:

Row | Ca2+ influx in the presence of GSK219 (mouse TRPV4) | Hill coefficient (mouse TRPV4; TRPV4-HEK293 cells) | EC50 (mouse TRPV4; [5]) [µM] | Ca2+ influx (F340/F380) (mouse TRPV4; TRPV4-HEK293 cells) | Structure (SMILES) | further results
9 | abolished | 0.7036 | 20 |  | CC(C)CC(NC(=O)c1cc2ccccc2s1)C(=O)N1CCN(C(=O)C(CO)NC(=O)c2ccc(Cl)cc2Cl)CC1 (stereo not drawn) [LM0024] | 
10 |  |  |  | no measurable current | CC(C)CC(NC(=O)c1cc2ccccc2s1)C(=O)N1CCN(C(=O)C(CO)NC(=O)c2ccc(Cl)cc2)CC1 (stereo not drawn) [LM0025] | 
11 | abolished | 1.0280 | 0.168 |  | CC(C)CC(NC(=O)c1cc2ccccc2s1)C(=O)N1CCCN(C(=O)C(CO)NS(=O)(=O)c2ccc(Cl)cc2Cl)CC1 (stereo not drawn) [LM0038] | [Ca2+]i response [1]: induced a significant TRPV4-mediated calcium response; also recorded: weaker calcium influx than before; [Ca2+]i response [2]: induced a significant TRPV4-mediated calcium response; also recorded: signals with lower peaks than before
12 | abolished | 1.1150 | 6.08 |  | CC(C)CC(NC(=O)c1cc2ccccc2s1)C(=O)N1CC2(C1)CN(C(=O)C(CO)NS(=O)(=O)c1ccccc1)C2 (stereo not drawn) [LM6147] | 
